According to ChEMBL document CHEMBL2429779, “Synthesis and anti-inflammatory activity of three nitro chalcones” (Bioorg Med Chem Lett, 2013):
Calls of active or inactive are those of the source. The rule behind the calls is not given here.

Experiments:
Rattus norvegicus [1] = assay: Antiinflammatory activity in Wistar rat assessed as protection against carrageenan-induced paw edema at 200 mg/kg, po after 1 hr by pletismometric analysis relative to vehicle-treated control; assay type: functional
Rattus norvegicus [2] = assay: Antiinflammatory activity in Wistar rat assessed as protection against carrageenan-induced paw edema at 200 mg/kg, po after 2 hrs by pletismometric analysis relative to vehicle-treated control; assay type: functional
Rattus norvegicus [3] = assay: Antiinflammatory activity in Wistar rat assessed as protection against carrageenan-induced paw edema at 200 mg/kg, ip measured after 3 to 7 hrs by pletismometric analysis relative to vehicle-treated control; assay type: functional, organism-based; set-up: dose 200 mg/kg
Rattus norvegicus [4] = assay: Antiinflammatory activity in Wistar rat assessed as protection against carrageenan-induced paw edema at 200 mg/kg, ip by pletismometric analysis; assay type: functional, organism-based; set-up: dose 200 mg/kg; conditions: TDE = time-dependent effect
[5] = Solubility of the compound in water; assay type: physicochemical; conditions: buffer
Rattus norvegicus [6] = assay: Antiinflammatory activity in Wistar rat assessed as protection against carrageenan-induced paw edema at 200 mg/kg, po after 2 to 7 hrs by pletismometric analysis relative to vehicle-treated control; assay type: functional, organism-based; set-up: dose 200 mg/kg
[7] = Solubility of the compound in DMSO; assay type: physicochemical
Rattus norvegicus [8] = assay: Antiinflammatory activity in Wistar rat assessed as protection against carrageenan-induced paw edema at 200 mg/kg, po by pletismometric analysis; assay type: functional, organism-based; set-up: dose 200 mg/kg; conditions: TDE = time-dependent effect
Rattus norvegicus [9] = assay: Antiinflammatory activity in Wistar rat assessed as protection against carrageenan-induced paw edema at 200 mg/kg, ip measured after 2 hrs by pletismometric analysis relative to vehicle-treated control; assay type: functional; conditions: route intraperitoneal
Rattus norvegicus [10] = assay: Antiinflammatory activity in Wistar rat assessed as protection against carrageenan-induced paw edema at 200 mg/kg, ip measured after 1 hr by pletismometric analysis relative to vehicle-treated control; assay type: functional; conditions: route intraperitoneal
Rattus norvegicus [11] = assay: Antiinflammatory activity in Wistar rat assessed as protection against carrageenan-induced paw edema at 200 mg/kg, ip measured after 2 to 7 hrs by pletismometric analysis relative to vehicle-treated control; assay type: functional; conditions: route intraperitoneal
Rattus norvegicus [12] = assay: Antiinflammatory activity in Wistar rat assessed as protection against carrageenan-induced paw edema at 200 mg/kg, po after 4 to 7 hrs by pletismometric analysis relative to vehicle-treated control; assay type: functional
Rattus norvegicus [13] = assay: Antiinflammatory activity in Wistar rat assessed as protection against carrageenan-induced paw edema at 200 mg/kg, po after 3 hrs by pletismometric analysis relative to vehicle-treated control; assay type: functional
Rattus norvegicus [14] = assay: Antiinflammatory activity in Wistar rat assessed as protection against carrageenan-induced paw edema at 10 mg/kg, po after 2 hrs by pletismometric analysis relative to vehicle-treated control; assay type: functional
Rattus norvegicus [15] = assay: Antiinflammatory activity in Wistar rat assessed as protection against carrageenan-induced paw edema at 10 mg/kg, po after 3 to 7 hrs by pletismometric analysis relative to vehicle-treated control; assay type: functional
Rattus norvegicus [16] = assay: Antiinflammatory activity in Wistar rat assessed as protection against carrageenan-induced paw edema at 200 mg/kg, po after 7 hrs by pletismometric analysis relative to vehicle-treated control; assay type: functional
Rattus norvegicus [17] = assay: Antiinflammatory activity in Wistar rat assessed as protection against carrageenan-induced paw edema at 200 mg/kg, po after 3 to 7 hrs by pletismometric analysis relative to vehicle-treated control; assay type: functional, organism-based; set-up: dose 200 mg/kg
Rattus norvegicus [18] = assay: Antiinflammatory activity in Wistar rat assessed as protection against carrageenan-induced paw edema at 200 mg/kg, ip measured after 2 to 7 hrs by pletismometric analysis; assay type: functional, organism-based; set-up: dose 200 mg/kg

Row | solubility [5] | solubility [7] | Structure (SMILES) | %max (Rattus norvegicus [1]) [%] | Activity (Rattus norvegicus [2]) [%] | Activity (Rattus norvegicus [3]) | Activity (Rattus norvegicus [4]) | Activity (Rattus norvegicus [6]) | Activity (Rattus norvegicus [8]) | %max (Rattus norvegicus [9]) [%] | %max (Rattus norvegicus [10]) [%] | Activity (Rattus norvegicus [11]) [%] | Activity (Rattus norvegicus [12]) [%] | %max (Rattus norvegicus [13]) [%] | %max (Rattus norvegicus [14]) [%] | Activity (Rattus norvegicus [15]) [%] | %max (Rattus norvegicus [2]) [%] | Activity (Rattus norvegicus [16]) [%] | Activity (Rattus norvegicus [17]) | Activity (Rattus norvegicus [18])
1 | Insoluble | soluble | O=C(/C=C/c1ccccc1)c1ccc([N+](=O)[O-])cc1 | 38 | 20 | Active | tde | Active | tde | 43.2 |  |  |  |  |  |  |  |  |  | 
2 | Insoluble | soluble | O=C(/C=C/c1ccccc1)c1ccccc1[N+](=O)[O-] |  |  |  | tde |  | tde |  | 58.2 | 50 | 30 | 34.8 |  |  |  |  |  | 
3 |  |  | Cc1cnc(NC(=O)C2=C(O)c3ccccc3S(=O)(=O)N2C)s1 [MELOXICAM] |  |  |  |  |  |  |  |  |  |  |  | 59.3 | 50 |  |  |  | 
4 | Insoluble | soluble | O=C(/C=C/c1ccccc1)c1cccc([N+](=O)[O-])c1 |  |  |  | tde |  | tde |  | 68 |  |  |  |  |  | 31 | 0 | inactive | Active
